Data from patent US12493040B2, “Cancer detection method using sense of smell of nematode” (HIROTSU BIO SCIENCE INC., priority 2013, dated 2025).

System: RNAi-treated eri-1 (mg366) nematodes
Assay: RNAi screening of olfactory receptor genes: chemotaxis assay of RNAi-treated nematodes to odorants
Format: in vivo, Caenorhabditis elegans
Conditions: repellent or high concentration of attractant
Outline: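 eri-1 (mg366) worms knocked down by feeding RNAi (Ahringer library) on IPTG/ampicillin NGM plates with E. coli for 4 days, then tested for chemotaxis, 30–50 worms per assay. Odorants at 1 μl of 10^−3 or 10^−4 dilution, or 1 and 5 μl undiluted. Hits scored by z score, thresholds ±1.96 (P<0.05) or ±0.96.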

CC(=O)C(C)=O [High Da]
chemotaxis index (Control nematodes): −0.62 ± 0.012 | chemotaxis index (srh-4 RNAi-treated nematodes): −0.81 | chemotaxis index (srh-7 RNAi-treated nematodes): −0.83 | chemotaxis index (srh-8 RNAi-treated nematodes): −0.63 | chemotaxis index (srh-10 RNAi-treated nematodes): 0.20 | chemotaxis index (srh-11 RNAi-treated nematodes): −0.65 | chemotaxis index (srh-15 RNAi-treated nematodes): −0.54 | chemotaxis index (srh-16 RNAi-treated nematodes): −0.65 | chemotaxis index (srh-18 RNAi-treated nematodes): −0.74 | chemotaxis index (srh-19 RNAi-treated nematodes): −0.43 | chemotaxis index (srh-22 RNAi-treated nematodes): −0.74 | chemotaxis index (srh-23 RNAi-treated nematodes): −0.87 | chemotaxis index (srh-24 RNAi-treated nematodes): −0.67 | chemotaxis index (srh-25 RNAi-treated nematodes): −0.22 | chemotaxis index (srh-27 RNAi-treated nematodes): −0.80 | chemotaxis index (srh-28 RNAi-treated nematodes): −0.58 | chemotaxis index (srh-36 RNAi-treated nematodes): −0.46 | chemotaxis index (srh-37 RNAi-treated nematodes): −0.34 | chemotaxis index (srh-39 RNAi-treated nematodes): −0.51 | chemotaxis index (srh-40 RNAi-treated nematodes): −0.46 | chemotaxis index (srh-41 RNAi-treated nematodes): −0.21 | chemotaxis index (srh-44 RNAi-treated nematodes): −0.25 | chemotaxis index (srh-45 RNAi-treated nematodes): −0.47 | chemotaxis index (srh-46 RNAi-treated nematodes): −0.82 | chemotaxis index (srh-48 RNAi-treated nematodes): −0.49 | chemotaxis index (srh-49 RNAi-treated nematodes): −0.62 | chemotaxis index (srh-50 RNAi-treated nematodes): −0.52 | chemotaxis index (srh-51 RNAi-treated nematodes): −0.73 | chemotaxis index (srh-52 RNAi-treated nematodes): −0.78 | chemotaxis index (srh-55 RNAi-treated nematodes): −0.78 | chemotaxis index (srh-59 RNAi-treated nematodes): −0.24 | chemotaxis index (srh-60 RNAi-treated nematodes): −0.64 | chemotaxis index (srh-61 RNAi-treated nematodes): −0.57 | chemotaxis index (srh-67 RNAi-treated nematodes): −0.58 | chemotaxis index (srh-68 RNAi-treated nematodes): −0.49 | chemotaxis index (srh-69 RNAi-treated nematodes): −0.76 | chemotaxis index (srh-70 RNAi-treated nematodes): −0.87 | chemotaxis index (srh-71 RNAi-treated nematodes): −0.38 | chemotaxis index (srh-72 RNAi-treated nematodes): −0.73 | chemotaxis index (srh-74 RNAi-treated nematodes): −0.54 | chemotaxis index (srh-75 RNAi-treated nematodes): −0.42 | chemotaxis index (srh-77 RNAi-treated nematodes): −0.34 | chemotaxis index (srh-79 RNAi-treated nematodes): 0.35 | chemotaxis index (srh-80 RNAi-treated nematodes): −0.48 | chemotaxis index (srh-82 RNAi-treated nematodes): −0.36 | chemotaxis index (srh-83 RNAi-treated nematodes): −0.23 | chemotaxis index (srh-97 RNAi-treated nematodes): −0.42 | chemotaxis index (srh-99 RNAi-treated nematodes): −0.24 | chemotaxis index (srh-100 RNAi-treated nematodes): −0.75 | chemotaxis index (srh-104 RNAi-treated nematodes): −0.39 | chemotaxis index (srh-105 RNAi-treated nematodes): −0.58 | chemotaxis index (srh-109 RNAi-treated nematodes): −0.59 | chemotaxis index (srh-111 RNAi-treated nematodes): −0.35 | chemotaxis index (srh-113 RNAi-treated nematodes): −0.62 | chemotaxis index (srh-115 RNAi-treated nematodes): −0.57 | chemotaxis index (srh-116 RNAi-treated nematodes): −0.36 | chemotaxis index (srh-118 RNAi-treated nematodes): −0.64 | chemotaxis index (srh-119 RNAi-treated nematodes): −0.78 | chemotaxis index (srh-120 RNAi-treated nematodes): −0.66 | chemotaxis index (srh-122 RNAi-treated nematodes): −0.53 | chemotaxis index (srh-123 RNAi-treated nematodes): −0.55 | chemotaxis index (srh-125 RNAi-treated nematodes): −0.59 | chemotaxis index (srh-128 RNAi-treated nematodes): −0.48 | chemotaxis index (srh-129 RNAi-treated nematodes): −0.69 | chemotaxis index (srh-130 RNAi-treated nematodes): −0.37 | chemotaxis index (srh-131 RNAi-treated nematodes): −0.34 | chemotaxis index (srh-132 RNAi-treated nematodes): −0.83 | chemotaxis index (srh-139 RNAi-treated nematodes): −0.42 | chemotaxis index (srh-140 RNAi-treated nematodes): −0.46 | chemotaxis index (srh-141 RNAi-treated nematodes): −0.77 | chemotaxis index (srh-142 RNAi-treated nematodes): −0.49 | chemotaxis index (srh-145 RNAi-treated nematodes): −0.85 | chemotaxis index (srh-148 RNAi-treated nematodes): −0.69 | chemotaxis index (srh-154 RNAi-treated nematodes): −0.65 | chemotaxis index (srh-159 RNAi-treated nematodes): −0.45 | chemotaxis index (srh-165 RNAi-treated nematodes): −0.79 | chemotaxis index (srh-166 RNAi-treated nematodes): −0.83 | chemotaxis index (srh-167 RNAi-treated nematodes): −0.89 | chemotaxis index (srh-169 RNAi-treated nematodes): −0.92 | chemotaxis index (srh-174 RNAi-treated nematodes): −0.69 | chemotaxis index (srh-179 RNAi-treated nematodes): −0.87 | chemotaxis index (srh-182 RNAi-treated nematodes): −0.86 | chemotaxis index (srh-186 RNAi-treated nematodes): −0.80 | chemotaxis index (srh-190 RNAi-treated nematodes): −0.91 | chemotaxis index (srh-193 RNAi-treated nematodes): −0.53 | chemotaxis index (srh-195 RNAi-treated nematodes): −0.80 | chemotaxis index (srh-201 RNAi-treated nematodes): −0.95 | chemotaxis index (srh-203 RNAi-treated nematodes): −0.94 | chemotaxis index (srh-204 RNAi-treated nematodes): −0.89 | chemotaxis index (srh-206 RNAi-treated nematodes): −0.79 | chemotaxis index (srh-207 RNAi-treated nematodes): −0.87 | chemotaxis index (srh-208 RNAi-treated nematodes): −0.76 | chemotaxis index (srh-209 RNAi-treated nematodes): −0.70 | chemotaxis index (srh-210 RNAi-treated nematodes): −0.56 | chemotaxis index (srh-214 RNAi-treated nematodes): −0.60 | chemotaxis index (srh-216 RNAi-treated nematodes): −0.61 | chemotaxis index (srh-217 RNAi-treated nematodes): −0.50 | chemotaxis index (srh-220 RNAi-treated nematodes): −0.42 | chemotaxis index (srh-222 RNAi-treated nematodes): −0.66 | chemotaxis index (srh-223 RNAi-treated nematodes): −0.50
